Data set [1] has as its system ovarian and cervical cancer cell lines. As to the kind of experiment: qHTS ATPlite cell viability, ovarian + cervical cancer cell lines. To be noted: Ovarian + cervical cancer cell line killer. Format: cell-based, human. Background: In qHTS, concentration-response curves come from the screen itself.
Description: A qHTS [79], in which each compound was assayed in five concentrations (0.092, 0.46, 2.3, 11.5, and 57.5 μM), was performed for the primary compound screen using the NPC [80] and NPACT drug libraries at NCATS. […]
The test system of data set [2] is 11 gynecologic cancer cell lines. Nature of the data set: qHTS ATPlite cell viability, gynecologic cancer cell lines (ovarian, cervical, placental). The following applies: for IC50: 48 h. Format: cell-based, human. The procedure:
(§1) The ATPlite luminescence assay system assay kit was used to determine cell viability. The reagent was reconstituted and prepared as described by the manufacturer. To measure the cell death caused by the compounds, cells were cultured in 4 μl of media for 16 hours at 37°C with 5% CO2 in assay plates, followed by the addition of DMSO or 16 SOC chemotherapeutic compounds dissolved in DMSO. SOC compounds were dosed at 11 concentrations (1:3 dilution) in quadruplicate from 57.5 μM to 0.977 nM using the automated Wako 1536 Pin Tool workstation and incubated at 37°C with 5% CO2 for 24, 48, or 72 hours. Four microliters of ATPlite, the ATP monitoring reagent, was then added to each well of the assay plates using the Multidrop Combi reagent dispenser followed by incubation for 15 minutes at room temperature. The resulting luminescence was measured using the ViewLux plate reader. Data were normalized for each drug using the largest luminescence value as 100% full cell viability (0% cell killing) and to the smallest luminescence value 0% viability (100% cell killing).
(§2) A qHTS [79], in which each compound was assayed in five concentrations (0.092, 0.46, 2.3, 11.5, and 57.5 μM), was performed for the primary compound screen using the NPC [80] and NPACT drug libraries at NCATS. The OBGYN cancer and HEK 293T control cells were seeded into 1536-well assay plates at 1000 cells per 4 μl/well and incubated at 37°C in 5% CO2 for 48 hours. The ATPlite assay to determine the IC50 values for each compound was conducted as described above. Plates were processed on the fully integrated Kalypsys robotic system.

The conditions of data set [3]: cited from earlier work.
Another data set has as its system HDAC 1/2/3. To be noted: against HDAC 1/2/3 only; cited from earlier work.
In the next data set the test system is HDAC 1/2/3/11. The following applies: inhibits only HDAC 1/2/3/11; cited from earlier work.
In data set [4] the test system is HEK 293T cells. Nature of the data set: cells. The following applies: 48 h. Here is the method:
as §1, §2

The subject of data set [5] is ovarian cancer cell lines. Nature of the data set: qHTS ATPlite cell viability, ovarian cancer cell lines. In kind it is cell-based, human. The following applies: Homo sapiens; read-out: IC50 for the ovarian lines.
Data set [6] relates to placental cancer cell lines (JAR, JEG-3). As to the kind of experiment: qHTS ATPlite cell viability, placental cancer cell lines. In kind it is cell-based, human. To be noted: Homo sapiens, JEG-3; read-out: IC50 for the placental lines. The procedure: as §1
The ATPlite assay to determine the IC50 values for each compound was conducted as described above. Plates were processed on the fully integrated Kalypsys robotic system.

The test system of data set [7] is cervical cancer cell lines (HeLa, Ca Ski, C-33 A). Nature of the data set: qHTS ATPlite cell viability, cervical cancer cell lines. In kind it is cell-based. To be noted: Homo sapiens.
Data set [8] concerns HEK 293T cells. Set-up: method as in PMID 31498718. The following applies: CellTiterGlo, cited from earlier work. For orientation: ATP-based viability assays read luminescence as a measure of living cells.
The mark [9] stands for this setting: Pan-GYN cancer cell line killer, vs HEK 293T, >100 = inactive in HEK293T (efficacy <50%).

Read-outs that look alike come from different tables or passages of the source.

The term IC50 denotes the concentration that gives 50% inhibition. Take `Cc1cc(CN2CCN(c3c(Br)cnc4nc(-c5ccc(N6CCN(C)CC6)cc5)[nH]c34)CC2)no1` [CCT137690]: the IC50 in data set [1] (mean of cell lines fulfilling criteria, 48 h) is 20000 ± 7020 nM. Further, the “Average SI” value in [1] (vs HEK 293T, >100 = inactive in HEK293T) is on record as over 100.
For `Nc1ccccc1NC(=O)c1ccc(CNC(=O)OCc2cccnc2)cc1` [Entinostat], the IC50 in [2] (Homo sapiens, Pan-GYN cancer cell line killer, mean of all cell lines fulfilling criteria, read-out: Average IC50) was 7.11 ± 6.62 µM. Besides, the “Average SI” value in data set [2] (setting [9]) is on record as over 100; in [2] (Pan-GYN cancer cell line killer, vs HEK 293T, >100 = inactive in HEK293T (efficacy <50%), listed as entinostat), over 100. For the same molecule, the Cmax in data set [3] (humans, 15 mg, read-out: Cmax) is 460 nM. The “potency of HDAC inhibition” value in the data set on HDAC 1/2/3 is given as “submicromolar potency”.
On to `Nc1ccccc1NC(=O)c1ccc(CNc2nccc(-c3cccnc3)n2)cc1` [Mocetinostat], for which the IC50 in [2] (Homo sapiens, read-out: Average IC50 (μM)) was determined as 2.76 ± 1.98 µM. In addition, the “Average SI” value in data set [2] (setting [9]) is over 100; in data set [2] (Pan-GYN cancer cell line killer, vs HEK 293T, >100 = inactive in HEK293T (efficacy <50%), listed as mocetinostat), over 100. Further, the Cmax in [3] (10 mg/kg, in humans, read-out: Cmax) is about 21400 nM; in data set [3] (40 mg/kg, in humans, read-out: Cmax), 75700 nM. The “potency of HDAC inhibition” value with HDAC 1/2/3/11 is recorded as “low micromolar potency or below”.
A word on the IC90: it is the point of the concentration-response curve where the effect stands at 90%. In the case of `Cc1[nH]c2ccccc2c1CCNCc1ccc(/C=C/C(=O)NO)cc1` [Panobinostat], the IC90 in data set [2] (Homo sapiens, average IC90 over the cell lines in which the compound is active, read-out: IC90) is 719 nM. In addition, the IC50 in data set [2] (Homo sapiens, toxic compounds, average over all cancer cell lines, mean ± S.D., read-out: Average IC50) was 0.355 ± 0.268 µM; in the data set on HEK 293T cells [4] (Homo sapiens, HEK-293T, read-out: IC50 (HEK 293T toxicity)), 210 nM; in [5], 343 nM; in [6], 516 nM; in data set [7] it was 224 nM; in the data set with HEK 293T cells [8] (independent screen), 162 nM. In addition, the “Cell Lines Active” value in [2] (number of the 11 cancer cell lines in which the compound is active (<1 μM potency, >70% efficacy)) was found to be 11. For the same molecule, the “Average SI” value in [2] (toxic compounds, selectivity index vs HEK 293T, average over all cancer cell lines, mean ± S.D.) is given as 0.92 ± 0.57. Besides, the “Efficacy (%) (HEK 293T toxicity)” value in the data set on HEK 293T cells [4] (HEK 293T, this screen (ATPlite)) came out at 82.6%. In the data set with HEK 293T cells [4] (human), the “toxicity to HEK 293T cells” value is “equally toxic to HEK 293T cells”. Further, the “Efficacy (%) (independent screen, HEK 293T)” value in the data set on HEK 293T cells [8] is 85.5%. For the same molecule, the “Independent Screen (confirmation of HEK 293T toxicity)” value in the data set with HEK 293T cells [8] is on record as “Confirmed toxic”. In addition, the Cmax in data set [3] (oral administration, read-out: Cmax human plasma concentration, range) is 38 to 119 nM; in data set [3] (oral administration, read-out: median Cmax human plasma concentration), 61 nM.
